Reference: patent US7700628B2, “Aromatic ether derivatives useful as thrombin inhibitors” (Eli Lilly and Company, priority 2004, dated 2010)
Where a name gives a salt, the structure may show the parent alone.

What was measured:
human factor Xa = target: T1, human factor Xa (Homo sapiens, UniProt P00742); assay: Kass determination, chromogenic substrate hydrolysis, factor Xa; format: biochemical; conditions: apparent association constant, mean value; set range given with 'or greater'
T1 construct: enzyme solution (e.g., human factor Xa, 32 nM in 0.03 M Tris, 0.15 M NaCl, 1 mg/mL HAS)
Experimental: (§1) The inhibition by a compound of the invention of a serine protease of the human blood coagulation system or of the fibrinolytic system, as well as of trypsin, is determined in vitro for the particular enzyme by measuring its inhibitor binding affinity in an assay in which the enzyme hydrolyzes a particular chromogenic substrate, for example as described in Smith, G. F.; Gifford-Moore, D.; Craft, T. J.; Chirgadze, N.; Ruterbories, K. J.; Lindstrom, T. D.; Satterwhite, J. H. Efegatran: A New Cardiovascular Anticoagulant. New Anticoagulants for the Cardiovascular Patient; Pifarre, R., Ed.; Hanley & Belfus, Inc.: Philadelphia, 1997; pp. 265-300. The inhibitor binding affinity is measured as apparent association constant Kass which is the hypothetical equilibrium constant for the reaction between enzyme and the test inhibitor compound (I).
(§2) [formula] [formula] Conveniently, enzyme inhibition kinetics are performed in a high-volume protocol using automated dilutions of inhibitors (n=3 for each of four to eight inhibitor concentrations) into 96-well polystyrene plates and reaction rates are determined from the rate of hydrolysis of appropriate p-nitroanilide substrates at 405 nm using a Thermomax plate reader from Molecular Devices (San Francisco, Calif.). The same general protocol is followed for all enzymes studied: In each well is placed 50 μL buffer (0.06 M Tris, 0.3 M NaCl, pH 7.4), followed by 25 μL of inhibitor solution (in 100 % methanol) and 25 μL enzyme solution (e.g., human factor Xa, 32 nM in 0.03 M Tris, 0.15 M NaCl, 1 mg/mL HAS); finally, within two minutes, 150 μL aqueous solution of chromogenic substrate (e.g., 0.3 mM BzIle-Glu-Gly-Arg-pNA) is added to start the enzymatic reaction. Final factor Xa concentration is 3.2 nM. The rates of chromogenic substrate hydrolysis reactions provide a linear relationship with the enzymes studied such that free enzyme can be quantitated in reaction mixtures. Data is analyzed directly as rates by the Softmax program to produce [free enzyme] calculations for tight-binding Kass determinations. For apparent Kass determinations, human factor Xa is used to hydrolyze BzIle-Glu-Gly- Arg-pNA (SEQ ID NO: 1); 5.9 nM human thrombin is used to hydrolyze 0.2 mM BzPhe-Val-Arg-pNA; 3.4 nM human plasmin is used with 0.5 mM HD-Val-Leu-Lys-pNA; 1.2 nM human nt-PA is used with 0.8 mM HD-Ile-Pro-Arg-pNA; and 0.4 nM urokinase is used with 0.4 mM pyro-Glu-Gly-Arg-pNA.
(§3) Kass is calculated for a range of concentrations of test compounds which produce hydrolysis inhibition of between 20% and 80% of control and the mean value reported in units of liter per mole. […] For example, the respective Kass values as to factor Xa/thrombin for Examples 41, 60, 106, 115, 1403 and 1414 are 407/16.9, 430/4.2, 3630/308, 3013/40 and 3630/308×10^6 L/mole.

human thrombin = human thrombin (Homo sapiens, UniProt P00734); assay: Kass determination, chromogenic substrate hydrolysis, thrombin; format: biochemical; conditions: apparent association constant, mean value; set range given with 'or greater'
Experimental: as §1, §2, §3

T1 sequence (P00742 235-488 limits assumed): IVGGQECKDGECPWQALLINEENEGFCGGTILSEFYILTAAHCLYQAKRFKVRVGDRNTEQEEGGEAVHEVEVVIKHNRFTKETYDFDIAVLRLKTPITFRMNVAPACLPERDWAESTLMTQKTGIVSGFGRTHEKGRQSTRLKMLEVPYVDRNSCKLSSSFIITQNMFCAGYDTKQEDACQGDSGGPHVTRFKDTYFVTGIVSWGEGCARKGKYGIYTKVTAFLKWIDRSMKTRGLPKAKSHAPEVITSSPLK
T1 sequence (P00742 41-179 partner limits assumed): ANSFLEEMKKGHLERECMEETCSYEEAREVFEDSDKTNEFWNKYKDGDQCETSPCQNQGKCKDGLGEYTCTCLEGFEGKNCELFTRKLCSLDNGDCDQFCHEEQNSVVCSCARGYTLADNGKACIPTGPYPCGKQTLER

SMILES	melting point [°C]	Kass for factor Xa (human factor Xa) [L/mol]	Kass for thrombin (factor IIa) (human thrombin) [L/mol]
CC(C)(C)c1ccc(CNc2ccc(Cl)cc2C(=O)Nc2ccc(Cl)cn2)c(OC2CCNCC2)c1 [Example 56, 2-[4-(tert-Butyl)-2-(piperidin-4-yloxy)benzylamino]-5-chloro-N-(5-chloropyridin-2-yl)benzamide]	153.6 to 154.5		
CC(C)(N)c1ccc(C(=O)Nc2ccccc2C(=O)Nc2ccc(Cl)cn2)c(OC2CCNCC2)c1 [Example 60, 2-[4-(1-Amino-1-methyl)ethyl-2-(piperidin-4-yloxy)benzoylamino]-N-(5-chloropyridin-2-yl)benzamide Bis(trifluoroacetate)]		4.3e+08	4.2e+06
CC(C)(C)c1ccc(CNc2ccccc2C(=O)Nc2ccc(Cl)cn2)c(OC2CCNCC2)c1 [Example 59, 2-[4-(tert-Butyl)-2-(piperidin-4-yloxy)benzylamino]-N-(5-chloro-pyridin-2-yl)benzamide]	169 to 170		
NCCOc1cc(N2CCOCC2)ccc1C(=O)Nc1ccc(F)cc1C(=O)Nc1ccc(Cl)cn1 [Example 41, 2-[2-(2-Aminoethoxy)-4-(morpholin-4-yl)benzoylamino]-N-(5-chloro-pyridin-2-yl)-5-fluorobenzamide Trifluoroacetate]		4.07e+08	1.69e+07

Next, values leading:

melting point [°C]	Kass for factor Xa (human factor Xa) [L/mol]	Kass for thrombin (factor IIa) (human thrombin) [L/mol]	SMILES
	3.013e+09	4e+07	NCCCOc1cc(N2CCOCC2)ccc1C(=O)Nc1ccc(F)cc1C(=O)Nc1ccc(Cl)cn1 [Example 115, 2-[2-(3-Aminopropoxy)-4-(morpholin-4-yl)benzoylamino]-N-(5-chloropyridin-2-yl)-5-fluorobenzamide]
	3.63e+09	3.08e+08	CSc1ccc(C(=O)Nc2ccc(Cl)cc2C(=O)Nc2ccc(Cl)cn2)c(OCCCN)c1 [Example 106, 2-[2-(3-Aminopropoxy)-4-(methylthio)benzoylamino]-5-chloro-N-(5-chloropyridin-2-yl)benzamide]
